Data from ChEMBL document CHEMBL5441456, “ASAP - SARS-CoV-2 nsp3 macrodomain dose response” (2024).
“And” between values parts separate entries of the source, which are not always exact repeats. Equal values may be shown once.

What follows are compounds tested against Replicase polyprotein 1ab (Severe acute respiratory syndrome coronavirus 2, UniProt P0DTD1) (assay: Functional biochemical assay to identify treatments for viral infectious disease that targets SARS-COV-2 nsp3 macrodomain, whereby the mechanism of action displaces an ADP-Ribose modified peptide from the binding site. Utilizing a time-resolved fluorescence method to measure binding by reading the emitted fluorescence intensity in two wavelengths.).

Compound | IC50
O[C@H]1C[C@](CNc2ncnc3[nH]ccc23)(c2ccccc2)C1 | > 124 µM
O=C(OCc1ccc(Cl)nc1)c1ncnc2[nH]ccc12 | > 99.5 µM
Cc1cccc(Cl)c1-n1sc(=O)n(CC2CC2)c1=O | 23 µM
O=C(c1ccccc1)N1CCC(c2ccn3ncc(C(=O)N4CCc5nc[nH]c5C4)c3c2)CC1 | > 99.5 µM
O=C(O)c1cnc(C(=O)N2CCC(c3ccn4ncc(C(=O)N5CCCCC5)c4c3)CC2)cn1 | > 99.5 µM
OC[C@@]1(Cc2ccc(F)cc2)CCN(c2ncnc3[nH]ccc23)C1 | > 99.5 µM
O=C(Nc1ncnc2c(C(=O)NC3(c4ccccc4F)CCCCC3)csc12)NC1CC1 | > 99.5 µM
Cc1ccc2c(c1)C[C@@H](C(=O)N(C)CC[C@@H](Nc1ncnc3[nH]ccc13)C(C)C)S2 | > 99.5 µM
O=C(OCc1cccc(Cl)n1)c1ncnc2[nH]ccc12 | > 124 µM
O=C(Nc1cnc2[nH]ncc2c1)C1CCN(c2ccc3nncn3n2)CC1 | > 124 µM
COc1cccc(CSC[C@@H](NC(=O)c2ncnc3[nH]ccc23)C(=O)O)c1 | > 99.5 µM
CC(C)[C@@H](Nc1ncnc2[nH]ccc12)c1nc2ccccc2[nH]1 | 96.6 µM
CC(=O)c1ccc(S(=O)(=O)Nc2cnc3[nH]ccc3c2)cc1 | > 99.5 µM
CS(=O)(=O)NC1CCC(Nc2ccc([C@@H](CC(=O)O)NC(=O)c3ncnc4[nH]ccc34)cc2)CC1 (stereo partly specified) | 73.7 µM and 86 µM
FC(F)(F)CO[C@@H]1CCCN(c2ncnc3[nH]ccc23)C1 | > 124 µM
O=C(O)c1cn(CCNC(=O)c2ncnc3[nH]ccc23)cn1 | > 99.5 µM
Cc1[nH]c2ncnc(NCc3ccco3)c2c1C | > 99.5 µM
O=C(c1c[nH]c(=O)cn1)N1CCC(c2ccn3ncc(C(=O)N4CCCCC4)c3c2)CC1 | 78.4 µM
CS(=O)(=O)NC1CCC(Nc2ccc([C@@H](CC(=O)O)NC(=O)c3c[nH]c4ncncc34)cc2)CC1 (stereo partly specified) | > 99.5 µM
O=C(OCc1ncccc1Cl)c1ncnc2[nH]ccc12 | > 99.5 µM
O=C(N[C@@H](C(=O)O)C1Cc2ccccc2C1)c1ncnc2[nH]ccc12 | > 99.5 µM
O=C(c1ncc[nH]1)N1CCC(c2ccn3ncc(C(=O)N4CCCCC4)c3c2)CC1 | > 99.5 µM
Cc1[nH]c2ncnc(NC(=O)c3ncn(-c4ccccc4)n3)c2c1C | > 99.5 µM
Brc1ccc(-n2nnnc2Sc2ncnc3[nH]ccc23)cc1 | > 124 µM
Cc1nc(C)c(CC(=O)Nc2cnc3[nH]ncc3c2)c(=O)[nH]1 | > 99.5 µM
Cc1ccc2snc(C(=O)N(C)CC[C@@H](Nc3ncnc4[nH]ccc34)C(C)C)c2c1 | > 99.5 µM

Compound | IC50
O=C(O)c1sccc1C(=O)N1CCC(c2ccn3ncc(C(=O)N4CCCCC4)c3c2)CC1 | 38 µM
CC(C)[C@H]1N(c2ncnc3[nH]ccc23)CC12CCOCC2 | > 99.5 µM
Cc1ncnc2c1C[C@@H](C(=O)N(C)CC[C@@H](Nc1ncnc3[nH]ccc13)C(C)C)CC2 | > 99.5 µM
O=C(c1cn2ncccc2n1)N1CCC(c2ccn3ncc(C(=O)N4CCCCC4)c3c2)CC1 | > 99.5 µM
Cc1[nH]c2ncnc(NC(=O)[C@@H]3CCO[C@@H]3C)c2c1C | 122 µM
C[C@@H](CO)Nc1ncnc2[nH]c(C(=O)OC(C)(C)C)cc12 | > 124 µM
Cc1nc2ccc(C(=O)N(C)CC[C@@H](Nc3ncnc4[nH]ccc34)C(C)C)cc2s1 | > 99.5 µM
Cn1cc([C@@H](Nc2ncnc3[nH]ccc23)c2ccc(F)cc2)cn1 | > 99.5 µM
O=C(NCc1cc2n(n1)CCCC2)c1cc2cncnc2[nH]1 | > 124 µM
C[C@@H](Cc1ccc(Cl)s1)Nc1ccc([C@@H](CC(=O)O)NC(=O)c2ncnc3[nH]ccc23)cc1 | 46.5 µM and 46.7 µM
O=S(=O)(Cc1ccc(F)cc1)Nc1cnc2[nH]ccc2c1 | > 99.5 µM
O=C(N[C@@H](CCO)c1ccccc1F)c1ncnc2[nH]ccc12 | > 99.5 µM
O=C(N[C@@H](C(=O)O)c1ccc2c(c1)CCO2)c1ncnc2[nH]ccc12 | 78.4 µM and 74.6 µM
O=C(Nc1ccccc1)Nc1ccc(C(=O)NC2c3cccc(O)c3CC2C(=O)O)cc1 (stereo unspecified) | 1.02 µM and 1.06 µM and 650 nM and 440 nM (3×) and 535 nM and 555 nM and 628 nM and 598 nM and 632 nM (2×) and 644 nM and 653 nM (2×) and 470 nM and 462 nM and 430 nM and 474 nM and 540 nM and 599 nM and 592 nM and 435 nM and 316 nM and 338 nM and 701 nM and 439 nM and 411 nM and 374 nM (2×) and 353 nM (2×) and 447 nM and 847 nM and 925 nM and 461 nM and 794 nM and 731 nM and 432 nM and 1.1 µM and 317 nM and 406 nM and 649 nM and 516 nM and 384 nM and 402 nM and 289 nM and 506 nM and 262 nM and 224 nM
Cc1cccc(C)c1-n1nnnc1CSc1ncnc2[nH]cnc12 | > 99.5 µM
CO[C@@H]1CCCN(C(=O)c2cnn3ccc(C4CCN(C(=O)c5ccccc5)CC4)cc23)C1 | > 99.5 µM
CC(C)[C@@H]1C(=O)NCCN1c1ncnc2[nH]ccc12 | 35.3 µM
CC(C)[C@@H](Nc1ncnc2[nH]ccc12)C(N)=O | 30.7 µM
CC(C)(NC(=O)c1ncnc2[nH]ccc12)c1cc(C(=O)O)[nH]n1 | > 99.5 µM
N#CCc1cccc(S(=O)(=O)Nc2cnc3[nH]ccc3c2)c1 | > 99.5 µM
O=C(O)c1ccc(C(=O)N2CCC(c3ccn4ncc(C(=O)N5CCCCC5)c4c3)CC2)o1 | 68.1 µM
C=CCn1c(Sc2ncnc3[nH]ccc23)nc2sccc2c1=O | > 99.5 µM
O=C(NCc1ccccc1F)c1ncnc2[nH]ccc12 | > 99.5 µM
O=C(N[C@H]1CCC[C@H]1C(=O)O)c1cnn2ccc(C3CCN(C(=O)c4ccccc4)CC3)cc12 | 35.8 µM
CC[C@@H]1C[C@@H](C(=O)Nc2ncnc3[nH]c(C)c(C)c23)CCO1 | > 124 µM
CCc1cnn(C)c1NC(=O)c1ncnc2[nH]ccc12 | > 99.5 µM

Compound | IC50
CC(C)[C@@H](CCN(C)C(=O)c1cccc2cc(F)ccc12)Nc1ncnc2[nH]ccc12 | > 99.5 µM
Cc1nccc(C(=O)N2CCC(c3ccn4ncc(C(=O)N5CCCCC5)c4c3)CC2)n1 | > 99.5 µM
CC(C)OCCNC(=O)c1cc2c(=O)n3ccccc3nc2n1C | > 124 µM
Cc1csc(NC(=O)CSC[C@@H](NC(=O)c2ncnc3[nH]ccc23)C(=O)O)n1 | > 99.5 µM
O=C(Nc1ccc(C(=O)NCc2c(C(=O)O)[nH]c3ccccc23)cc1)NC1CC1 | 13.6 µM
NS(=O)(=O)c1ccccc1CNc1ncnc2[nH]ccc12 | > 124 µM
Cc1n[nH]c(C)c1C(=O)N1CCC(c2ccn3ncc(C(=O)N4CCCCC4)c3c2)CC1 | > 99.5 µM
O=C(c1nnn[nH]1)N1CCC(c2ccn3ncc(C(=O)N4CCCCC4)c3c2)CC1 | 28.3 µM
O=C(c1cnc[nH]1)N1CCC(c2ccn3ncc(C(=O)N4CCCCC4)c3c2)CC1 | > 99.5 µM
c1ccc(-c2cc(CNc3ncnc4[nH]ccc34)on2)cc1 | > 124 µM
C[C@H]1C[C@H]1c1nnc(Nc2ccc([C@@H](CC(=O)O)NC(=O)c3ncnc4[nH]ccc34)cc2)o1 | 7.86 µM and 6.04 µM
O=C(CCN(Cc1cccc(Cl)c1)C(=O)c1ccc(F)cn1)N1CCNCC1 | > 99.5 µM
O=C(c1cccnc1S)N1CCC(c2ccn3ncc(C(=O)N4CCCCC4)c3c2)CC1 | 61.6 µM
O=C(c1cc(O)ccn1)N1CCC(c2ccn3ncc(C(=O)N4CCCCC4)c3c2)CC1 | > 99.5 µM
O=C(Nc1ncnc2c(C(=O)Nc3ccccc3C(=O)N3CCCC3)csc12)NC1CC1 | > 99.5 µM
O=C(N[C@@H]1CCC[C@@H]1C(=O)O)c1cnn2ccc(C3CCN(C(=O)c4ccc(Cl)cc4)CC3)cc12 | 32.5 µM and 24.5 µM
NC(=O)c1ccc(S(=O)(=O)Nc2cnc3[nH]ccc3c2)cc1 | > 99.5 µM
CC(C)[C@@H](CCN(C)C(=O)c1cc2nccnc2cc1F)Nc1ncnc2[nH]ccc12 | > 99.5 µM
O=C(O)c1cn(CCCNC(=O)c2ncnc3[nH]ccc23)nn1 | > 99.5 µM
OC[C@@H](Nc1ncnc2[nH]c(I)cc12)c1ccccc1 | > 124 µM
COc1ccc2c(c1)CCN(c1ncnc3[nH]ccc13)[C@H]2C(C)C | 14.2 µM and 12 µM
CC(C)[C@@H](Nc1ncnc2[nH]ccc12)c1cccs1 | 14.9 µM
Cn1cc([C@@H](Nc2ncnc3[nH]ccc23)C2CCC2)cn1 | 15 µM
Cc1cc(NCc2cnc3c(c2)NC(=O)CO3)cnc1C | > 124 µM
Cc1[nH]c2ncnc(NC(=O)C3CC(C(F)(F)F)C3)c2c1C (stereo unspecified) | > 99.5 µM
Cc1n[nH]nc1C(=O)N1CCC(c2ccn3ncc(C(=O)N4CCCCC4)c3c2)CC1 | > 99.5 µM

Compound | IC50
COc1ccccc1C[C@@H](Nc1ncnc2[nH]ccc12)C(C)C | 97.5 µM
O=C(O)c1ccsc1C(=O)N1CCC(c2ccn3ncc(C(=O)N4CCCCC4)c3c2)CC1 | 58.9 µM
O=C(NCc1ccc(F)cn1)c1ncnc2[nH]ccc12 | > 99.5 µM
CC(C)[C@@H](Nc1ncnc2[nH]ccc12)C(F)F | 15.2 µM
Cc1nc(C(=O)N2CCC(c3ccn4ncc(C(=O)N5CCCCC5)c4c3)CC2)c(=O)[nH]c1C | > 99.5 µM
c1cc(-c2nnc(Sc3ncnc4[nH]ccc34)[nH]2)ccn1 | > 124 µM
CC(C)c1c[nH]nc1NC(=O)c1ccc(NC(=O)Nc2ccccc2)cc1 | > 99.5 µM
CC(C)[C@@H](Nc1ncnc2n[nH]cc12)c1cnn(C)c1 | 43.1 µM
CC(C)(C)n1cc([C@H]2N(c3ncnc4[nH]ccc34)CC23CCOCC3)cn1 | > 99.5 µM
CCc1coc(Nc2ccc([C@@H](CC(=O)O)NC(=O)c3c[nH]c4ncncc34)cc2)n1 | 70.9 µM and 76.1 µM
O=C(c1cccc(Br)c1)N1CCC(c2ccn3ncc(C(=O)N4CCCCC4)c3c2)CC1 | > 124 µM
Cn1nc(C(=O)O)cc1C(=O)N1CCC(c2ccn3ncc(C(=O)N4CCCCC4)c3c2)CC1 | > 99.5 µM
Cn1nc(C(=O)N2CCC(c3ccn4ncc(C(=O)N5CCCCC5)c4c3)CC2)cc1C(=O)O | 66.4 µM
Cc1ccc(-c2n[nH]cc2CNc2cnc3[nH]ncc3c2)o1 | > 124 µM
Cn1ncc2c(NCc3ncccc3O)ncnc21 | > 124 µM
O=C(c1ccccc1)N1CCC(c2ccn3ncc(C(=O)N4CCCC[C@H](O)C4)c3c2)CC1 | > 99.5 µM
CC(=O)Nc1ccc(S(=O)(=O)NNc2ncnc3sccc23)cc1 | > 99.5 µM
CC(C)[C@@H](CCN(C)C(=O)c1nn(C)c2ccc(F)cc12)Nc1ncnc2[nH]ccc12 | > 99.5 µM
O=C(O)[C@H]1CCCCCN1C(=O)c1ncnc2[nH]ccc12 | > 124 µM
Cc1[nH]c2ncnc(NC(=O)CCc3ccccc3)c2c1C | > 99.5 µM
CN(C)C(=O)c1cccc(S(=O)(=O)Nc2cnc3[nH]ccc3c2)c1 | > 99.5 µM
CC(C)[C@@H](CN1CCCCC1)Nc1ncnc2[nH]ccc12 | > 99.5 µM
C[C@H]1C[C@H]1c1nnc(Nc2ccc([C@@H](CC(=O)O)NC(=O)c3c[nH]c4ncncc34)cc2)o1 | 85.2 µM and 97 µM
